The first data set in a line: in vitro. To be noted: human, hela cells, % viability.
The term viability denotes a read-out of living cells in per cent, often relative to untreated cells. As for `OCCN1CC2(CCN(Cc3cccc(Oc4ccccc4)c3)CC2)c2ccccc21` [CBK131528], the viability at 28.5 h, 10 µM worked out at 88.7%. Still for that read-out and setting: to `CSCCC(=O)N1CCCC2(CCN(C(=O)c3cc(F)c(F)cc3F)C2)C1` (centres unmarked) [CBK131557] belongs 93.7%. For the molecule `Cc1ccc(S(=O)(=O)CC(=O)N2CCCC3(CCN(C(=O)c4cc(F)c(F)cc4F)C3)C2)cc1` (centres unmarked) [CBK131558], the viability at 28.5 h, 10 µM turned out to be 99%. `COc1ccc2[nH]cc(CC(=O)N3CCCC4(CCN(C(=O)c5cc(F)c(F)cc5F)C4)C3)c2c1` (centres unmarked) [CBK131562]: the viability at 28.5 h, 10 µM was determined as 88.6%. With `O=C(c1cncnc1)N1CCCC2(CCN(C(=O)c3cc(F)c(F)cc3F)C2)C1` (centres unmarked) [CBK131564], the viability at 28.5 h, 10 µM amounted to 106%.

Consider `O=C(c1ccc2[nH]c(=O)[nH]c2c1)N1CCCC2(CCN(C(=O)c3cc(F)c(F)cc3F)C2)C1` (centres unmarked) [CBK131566], for which the viability at 28.5 h, 10 µM was determined as 106%. The same measure, in the same setting: next, `O=C(O)CCC(=O)N1CCCC2(CCN(C(=O)Cc3c[nH]c4ccccc34)C2)C1` (centres unmarked) [CBK131572]: 91.2%; `N#Cc1cccc(C(=O)N2CCCC3(CCN(C(=O)Cc4c[nH]c5ccccc45)C3)C2)c1` (centres unmarked) [CBK131581]: 93.4%. As to `O=C(Cc1c[nH]c2ccccc12)N1CCC2(CCCN(C(=O)c3cscn3)C2)C1` (centres unmarked) [CBK131590], the viability at 28.5 h, 10 µM was found to be 99.1%.

On to `Cc1ccc(S(=O)(=O)CC(=O)N2CCCC3(CCN(C(=O)Cc4c[nH]c5ccccc45)C3)C2)cc1` (centres unmarked) [CBK131595], for which the viability at 28.5 h, 10 µM is 90.4%. Same read-out and setting: to `COc1cc(C(=O)N2CCCC3(CCN(C(=O)Cc4c[nH]c5ccccc45)C3)C2)cc(OC)c1OC` (centres unmarked) [CBK131601] belongs 96%. Consider `O=C(Cc1c[nH]c2ccccc12)N1CCC2(CCCN(C(=O)c3c(F)cccc3F)C2)C1` (centres unmarked) [CBK131605], for which the viability at 28.5 h, 10 µM was 85.8%. The same measure, in the same setting: next, `O=C(COc1cccnc1)N1CCCC2(CCN(C(=O)Cc3c[nH]c4ccccc34)C2)C1` (centres unmarked) [CBK131608]: 105%. For the molecule `Cc1cn(CC(=O)N2CCCC3(CCN(C(=O)c4ccoc4)C3)C2)c(=O)[nH]c1=O` (centres unmarked) [CBK131634], the viability at 28.5 h, 10 µM turned out to be 104%. On the same count and under the same terms, to `O=C(c1cccnc1)N1CCCC2(CCN(C(=O)c3ccoc3)C2)C1` (centres unmarked) [CBK131640] belongs 97%; to `COc1ccc(C(=O)N2CCC3(CCCN(C(=O)Cc4ccc(Cl)c(Cl)c4)C3)C2)cc1OC` (centres unmarked) [CBK131654], 98.1%; to `COc1ccc(C(=O)N2CCC3(CCCN(C(=O)c4ccc5ncccc5c4)C3)C2)cc1OC` (centres unmarked) [CBK131656], 92.4%. Regarding `COc1ccc2[nH]cc(CC(=O)N3CCCC4(CCN(C(=O)c5ccc(OC)c(OC)c5)C4)C3)c2c1` (centres unmarked) [CBK131666], the viability at 28.5 h, 10 µM turned out to be 81.1%. On the same count and under the same terms, next, `O=C(O)CC1SC(Nc2cccc(Cl)c2)=NC1=O` (centres unmarked) [CBK131683]: 105%; `N#Cc1c(-c2ccccc2)cc(-c2ccccc2)nc1SCC(=O)O` [CBK131684]: 92.6%; `O=C(O)CSc1nnc(-c2ccc3c(c2)OCO3)n1-c1ccccc1` [CBK131690]: 105%. The same measure, in the same setting: to `COc1ccc(-c2nc(Nc3cccc(C(F)(F)F)c3)sc2CC(=O)O)cc1OC` [CBK131693] belongs 97.9%; to `O=C(CSCc1ccc(Cl)cc1)Nc1ccc(O)cc1C(=O)O` [CBK131694], 97.1%. The same measure, in the same setting: next, `COc1cc(-c2nnc(SCC(=O)O)n2-c2ccccc2)cc(OC)c1OC` [CBK131695]: 104%; `CC(=O)Nc1ccc(NC(=O)CSCc2ccc(Cl)cc2Cl)cc1` [CBK131696]: 96.4%. Consider `O=C(CCCc1ccccc1)Nc1ccc(O)cc1C(=O)O` [CBK131699], for which the viability at 28.5 h, 10 µM stood at 99.7%.

On to `O=C(CSCc1ccc(Cl)cc1Cl)Nc1cccc(O)c1` [CBK131702], for which the viability at 28.5 h, 10 µM was found to be 110%.

For `Cc1ccc(SCC(=O)Nc2ccc(O)cc2C(=O)O)cc1` [CBK131703], the viability at 28.5 h, 10 µM is 118%.

The same data set, now with this note: human, hela cells, % viability, bulk resorufin, single well.
Consider `CCOC(=O)N1CCC2(CC1)OCc1ccc(C#N)cc1O2` [CBK131679], for which the viability at 28.5 h, 10 µM was 97.2%.

These data come from article PMC12040169 (PLOS Biology, 2025).
